Reference: patent publication US20100076015A1, “Aminopyridine Derivatives” (VANTIA LIMITED, priority 2008, published 2010)

Molecular target: T1, Human KLK1 (Homo sapiens, UniProt P06870)
T1 construct: purchased Callbiochem (Calbiochem)
Assay: Determination of the IC50 for KLK1 (fluorogenic substrate H-DVal-Leu-Arg-AFC)
Format: biochemical
Conditions: 37° C.
Summary of the method: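 hKLK1 + H-DVal-Leu-Arg-AFC, 37° C, varied cpd conc. Initial rate by A410 change → residual activity → IC50.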

T1 sequence (P06870 25-262): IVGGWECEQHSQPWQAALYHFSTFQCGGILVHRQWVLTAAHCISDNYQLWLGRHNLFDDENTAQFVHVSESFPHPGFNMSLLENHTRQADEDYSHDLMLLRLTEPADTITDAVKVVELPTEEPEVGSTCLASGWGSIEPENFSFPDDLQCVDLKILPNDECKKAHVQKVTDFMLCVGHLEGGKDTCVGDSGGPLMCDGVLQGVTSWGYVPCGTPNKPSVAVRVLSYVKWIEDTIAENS

Structure (SMILES) | IC50 [µM]
Cc1ccc(C[C@H](NC(=O)[C@H]2CCCN2C(C)C)C(=O)NCc2ccc(N)nc2)cc1 [Example 123, (R)-1-Isopropyl-pyrrolidine-2-carboxylic acid {(S)-1-[(6-amino-pyridin-3-ylmethyl)-carbamoyl]-2-p-tolyl-ethyl}-amide] | 0.0014
COc1cccc(C[C@H](NC(=O)[C@H]2CCCN2C(C)C)C(=O)NCc2ccc(N)nc2)c1 [Example 124, (R)-1-Isopropyl-pyrrolidine-2-carboxylic acid [(S)-1-[(6-amino-pyridin-3-ylmethyl)-carbamoyl]-2-(3-methoxy-phenyl)-ethyl]-amide] | 0.0368
CC(C)N1CCC[C@@H]1C(=O)N[C@@H](Cc1ccccc1F)C(=O)NCc1ccc(N)nc1 [Example 125, (R)-1-Isopropyl-pyrrolidine-2-carboxylic acid [(S)-1-[(6-amino-pyridin-3-ylmethyl)-carbamoyl]-2-(2-fluoro-phenyl)-ethyl]-amide] | 0.0088
CC(C)N1CCC[C@@H]1C(=O)N[C@@H](Cc1ccccc1Cl)C(=O)NCc1ccc(N)nc1 [Example 126, (R)-1-Isopropyl-pyrrolidine-2-carboxylic acid [(S)-1-[(6-amino-pyridin-3-ylmethyl)-carbamoyl]-2-(2-chloro-phenyl)-ethyl]-amide] | 0.0093
CC(C)N1CCC[C@@H]1C(=O)N[C@@H](Cc1ccc(Cl)cc1Cl)C(=O)NCc1ccc(N)nc1 [Example 127, (R)-1-Isopropyl-pyrrolidine-2-carboxylic acid [(S)-1-[(6-amino-pyridin-3-ylmethyl)-carbamoyl]-2-(2,4-dichloro-phenyl)-ethyl]-amide] | 0.0009
CC(C)N1CCC[C@@H]1C(=O)N[C@@H](Cc1ccccc1C(F)(F)F)C(=O)NCc1ccc(N)nc1 [Example 128, (R)-1-Isopropyl-pyrrolidine-2-carboxylic acid [(S)-1-[(6-amino-pyridin-3-ylmethyl)-carbamoyl]-2-(2-trifluoromethyl-phenyl)-ethyl]-amide] | 0.0076
CC(C)N1CCC[C@@H]1C(=O)N[C@@H](Cc1ccncc1)C(=O)NCc1ccc(N)nc1 [Example 129, (R)-1-Isopropyl-pyrrolidine-2-carboxylic acid {(S)-1-[(6-amino-pyridin-3-ylmethyl)-carbamoyl]-2-pyridin-4-yl-ethyl}-amide] | 0.215
CC(C)N1CCC[C@@H]1C(=O)N[C@@H](Cc1c[nH]c2ccccc12)C(=O)NCc1ccc(N)nc1 [Example 130, (R)-1-Isopropyl-pyrrolidine-2-carboxylic acid [(S)-1-[(6-amino-pyridin-3-ylmethyl)-carbamoyl]-2-(1H-indol-3-yl)-ethyl]-amide] | 0.005
CCCN1CCC[C@@H]1C(=O)N[C@@H](Cc1ccc(F)c(F)c1)C(=O)NCc1ccc(N)nc1 [Example 132, (R)-1-Propyl-pyrrolidine-2-carboxylic acid [(S)-1-[(6-amino-pyridin-3-ylmethyl)-carbamoyl]-2-(3,4-difluoro-phenyl)-ethyl]-amide] | 0.0064
CC(C)CN1CCC[C@@H]1C(=O)N[C@@H](Cc1ccc(F)c(F)c1)C(=O)NCc1ccc(N)nc1 [Example 133, (R)-1-Isobutyl-pyrrolidine-2-carboxylic acid [(S)-1-[(6-amino-pyridin-3-ylmethyl)-carbamoyl]-2-(3,4-difluoro-phenyl)-ethyl]-amide] | 0.0165
COC(=O)CN1CCC[C@@H]1C(=O)N[C@@H](Cc1ccc(F)c(F)c1)C(=O)NCc1ccc(N)nc1 [Example 134, {(R)-2-[(S)-1-[(6-Amino-pyridin-3-ylmethyl)-carbamoyl]-2-(3,4-difluoro-phenyl)-ethylcarbamoyl]-pyrrolidin-1-yl}-acetic acid methyl ester] | 0.0135
Nc1ccc(CNC(=O)[C@H](Cc2ccc(F)c(F)c2)NC(=O)[C@H]2CCCN2CC(=O)O)cn1 [Example 135, {(R)-2-[(S)-1-[(6-Amino-pyridin-3-ylmethyl)-carbamoyl]-2-(3,4-difluoro-phenyl)-ethylcarbamoyl]-pyrrolidin-1-yl}-acetic acid] | 0.0173
CCN1CCC[C@@H]1C(=O)N[C@@H](Cc1ccc(F)cc1)C(=O)NCc1ccc(N)nc1 [Example 136, (R)-1-Ethyl-pyrrolidine-2-carboxylic acid [(S)-1-[(6-amino-pyridin-3-ylmethyl)-carbamoyl]-2-(4-fluoro-phenyl)-ethyl]-amide] | 0.0086
CCN1CCC[C@@H]1C(=O)N[C@@H](Cc1cccc(C)c1)C(=O)NCc1ccc(N)nc1 [Example 137, (R)-1-Ethyl-pyrrolidine-2-carboxylic acid {(S)-1-[(6-amino-pyridin-3-ylmethyl)-carbamoyl]-2-m-tolyl-ethyl}-amide] | 0.288
CCN1CCC[C@@H]1C(=O)N[C@@H](Cc1cccc(Cl)c1)C(=O)NCc1ccc(N)nc1 [Example 138, (R)-1-Ethyl-pyrrolidine-2-carboxylic acid [(S)-1-[(6-amino-pyridin-3-ylmethyl)-carbamoyl]-2-(3-chloro-phenyl)-ethyl]-amide] | 0.0398
CCCN1CCC[C@@H]1C(=O)N[C@@H](Cc1ccc(F)cc1)C(=O)NCc1ccc(N)nc1 [Example 139, (R)-1-Propyl-pyrrolidine-2-carboxylic acid [(S)-1-[(6-amino-pyridin-3-ylmethyl)-carbamoyl]-2-(4-fluoro-phenyl)-ethyl]-amide] | 0.0037
Nc1ccc(CNC(=O)[C@H](Cc2ccc(F)c(F)c2)NC(=O)[C@H]2CCCN2Cc2ccccc2)cn1 [Example 140, (R)-1-Benzyl-pyrrolidine-2-carboxylic acid [(S)-1-[(6-amino-pyridin-3-ylmethyl)-carbamoyl]-2-(3,4-difluoro-phenyl)-ethyl]-amide] | 0.0043
Nc1ccc(CNC(=O)[C@H](Cc2ccc(Cl)c(Cl)c2)NC(=O)[C@H]2CCCN2Cc2ccccc2)cn1 [Example 141, (R)-1-Benzyl-pyrrolidine-2-carboxylic acid [(S)-1-[(6-amino-pyridin-3-ylmethyl)-carbamoyl]-2-(3,4-dichloro-phenyl)-ethyl]-amide] | 0.0137
Nc1ccc(CNC(=O)[C@H](Cc2ccc(F)c(F)c2)NC(=O)[C@H]2CCCN2Cc2ccc(Cl)cc2)cn1 [Example 142, (R)-1-(4-Chloro-benzyl)-pyrrolidine-2-carboxylic acid [(S)-1-[(6-amino-pyridin-3-ylmethyl)-carbamoyl]-2-(3,4-difluoro-phenyl)-ethyl]-amide] | 0.015
Nc1ccc(CNC(=O)[C@H](Cc2ccc(F)c(F)c2)NC(=O)[C@H]2CCCN2Cc2cccc(Cl)c2)cn1 [Example 143, (R)-1-(3-Chloro-benzyl)-pyrrolidine-2-carboxylic acid [(S)-1-[(6-amino-pyridin-3-ylmethyl)-carbamoyl]-2-(3,4-difluoro-phenyl)-ethyl]-amide] | 0.021
CN1CCCC[C@@H]1C(=O)N[C@@H](Cc1ccc(F)c(F)c1)C(=O)NCc1ccc(N)nc1 [Example 144, (R)-1-Methyl-piperidine-2-carboxylic acid [(S)-1-[(6-amino-pyridin-3-ylmethyl)-carbamoyl]-2-(3,4-difluoro-phenyl)-ethyl]-amide] | 0.0209
CC(C)N1CCCC[C@@H]1C(=O)N[C@@H](Cc1ccc(F)c(F)c1)C(=O)NCc1ccc(N)nc1 [Example 146, (R)-1-Isopropyl-piperidine-2-carboxylic acid [(S)-1-[(6-amino-pyridin-3-ylmethyl)-carbamoyl]-2-(3,4-difluoro-phenyl)-ethyl]-amide] | 0.102
CC(C)N1CCCC[C@@H]1C(=O)N[C@@H](Cc1ccc(F)cc1)C(=O)NCc1ccc(N)nc1 [Example 147, (R)-1-Isopropyl-piperidine-2-carboxylic acid [(S)-1-[(6-amino-pyridin-3-ylmethyl)-carbamoyl]-2-(4-fluoro-phenyl)-ethyl]-amide] | 0.0496
CN1C[C@H](O)C[C@@H]1C(=O)N[C@@H](Cc1ccc(F)c(F)c1)C(=O)NCc1ccc(N)nc1 [Example 148, (2R,4R)-4-Hydroxy-1-methyl-pyrrolidine-2-carboxylic acid [(S)-1-[(6-amino-pyridin-3-ylmethyl)-carbamoyl]-2-(3,4-difluoro-phenyl)-ethyl]-amide] | 0.0557
CN1Cc2ccccc2C[C@@H]1C(=O)N[C@@H](Cc1ccc(F)c(F)c1)C(=O)NCc1ccc(N)nc1 [Example 149, (R)-2-Methyl-1,2,3,4-tetrahydro-isoquinoline-3-carboxylic acid [(S)-1-[(6-amino-pyridin-3-ylmethyl)-carbamoyl]-2-(3,4-difluoro-phenyl)-ethyl]-amide] | 0.0368
CC(C)N(C)CC(=O)N[C@@H](Cc1ccc(Cl)c(Cl)c1)C(=O)NCc1ccc(N)nc1 [Example 150, (S)—N-(6-Amino-pyridin-3-ylmethyl)-3-(3,4-dichloro-phenyl)-2-[2-(isopropyl-methyl-amino)-acetylamino]-propionamide] | 0.012
CC(C)N(C)[C@H](C)C(=O)N[C@@H](Cc1ccc(Cl)c(Cl)c1)C(=O)NCc1ccc(N)nc1 [Example 151, (R)—N-[(S)-1-[(6-Amino-pyridin-3-ylmethyl)-carbamoyl]-2-(3,4-dichloro-phenyl)-ethyl]-2-(isopropyl-methyl-amino)-propionamide] | 0.0177
CN(CC(=O)N[C@@H](Cc1ccc(Cl)c(Cl)c1)C(=O)NCc1ccc(N)nc1)Cc1ccccc1 [Example 152, (S)—N-(6-Amino-pyridin-3-ylmethyl)-2-[2-(benzyl-methyl-amino)-acetylamino]-3-(3,4-dichloro-phenyl)-propionamide] | 0.0057
CN(C)CC(=O)N[C@@H](Cc1ccc(Cl)c(Cl)c1)C(=O)NCc1ccc(N)nc1 [Example 153, (S)—N-(6-Amino-pyridin-3-ylmethyl)-3-(3,4-dichloro-phenyl)-2-(2-dimethylamino-acetylamino)-propionamide] | 0.0699
CC(C)CN(C)CC(=O)N[C@@H](Cc1ccc(Cl)c(Cl)c1)C(=O)NCc1ccc(N)nc1 [Example 154, (S)—N-(6-Amino-pyridin-3-ylmethyl)-3-(3,4-dichloro-phenyl)-2-[2-(isobutyl-methyl-amino)-acetylamino]-propionamide] | 0.216
